How the values were obtained:
human P2X7 = target: T1, human P2X7 (UniProt Q99572); assay: Intracellular Calcium Flux (FLIPR) Assay; type: cell-based
T1 sequence (Q99572 1-595): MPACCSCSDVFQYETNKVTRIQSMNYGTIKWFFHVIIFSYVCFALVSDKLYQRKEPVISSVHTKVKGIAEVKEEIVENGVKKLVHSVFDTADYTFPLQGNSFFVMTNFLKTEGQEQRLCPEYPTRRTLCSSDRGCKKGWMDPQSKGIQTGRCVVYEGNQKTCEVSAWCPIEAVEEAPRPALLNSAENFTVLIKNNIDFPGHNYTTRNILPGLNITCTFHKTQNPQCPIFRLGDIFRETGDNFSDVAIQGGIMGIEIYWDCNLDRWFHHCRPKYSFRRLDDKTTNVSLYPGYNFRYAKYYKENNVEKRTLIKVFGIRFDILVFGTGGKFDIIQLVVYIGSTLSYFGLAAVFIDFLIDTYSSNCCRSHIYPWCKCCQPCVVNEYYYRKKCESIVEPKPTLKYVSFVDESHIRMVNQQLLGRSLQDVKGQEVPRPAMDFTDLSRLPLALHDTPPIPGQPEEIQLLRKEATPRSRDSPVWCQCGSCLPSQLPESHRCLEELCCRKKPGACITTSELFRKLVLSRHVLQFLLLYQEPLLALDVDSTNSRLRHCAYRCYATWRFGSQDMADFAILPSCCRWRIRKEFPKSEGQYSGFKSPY
Protocol: Intracellular Calcium Flux (FLIPR) Assay
Compound and Reagent Preparation
Stock solutions of compounds were prepared from powders as a 10 mM DMSO stock solution. These solutions were stored at RT during the two week period of these experiments to prevent freeze-thaw of the DMSO stocks. The DMSO stocks were added to the appropriate assay buffer at a concentration of 10 μM, and then diluted serially to the final concentrations that were tested. No observable precipitate was formed at any time during this process. The aqueous solutions of compounds as well as ATP (Sigma A7699) and BzATP (Sigma B6396) were prepared fresh for each day of experiment.
1321N1 cells stably expressing the full length human P2X7 gene (1321N1-hP2X7) and HEK293 cells stably expressing the full length rat P2X7 gene (HEK293-rP2X7) were obtained from the Roche Cell Culture Facility. 1321N1-hP2X7 cells were grown in Dulbecco's Modified Eagle's Medium (DMEM) high glucose supplemented with 10% FBS and […] G418. HEK293-rP2X7 cells were grown in DMEM/F-12 supplemented with 10% FBS, 1 mM CaCl2, 2 mM MgCl2, 2 mM L-Glutamine and […] G418. Cells were split such that they never became >70% confluent.
Intracellular Calcium Flux (FLIPR)
On the day prior to the experiment, 1321N1-hP2X7 or HEK293-rP2X7 cells were released into suspension with calcium-free PBS+Versene and washed by centrifugation with calcium-free PBS to remove the Versene. Cells were resuspended in growth medium at a density of 2.5×10^5 cells/mL and seeded into black walled, clear bottom 96 well plates (50,000 cells/well) approximately 18 hr prior to intracellular calcium flux experiments.
On the day of the experiment, plates were washed with FLIPR buffer (calcium- and magnesium-free Hank's Balanced Salt Solution (HBSS) supplemented with 10 mM Hepes, 2.5 mM probenecid and 2 mM calcium chloride) using a BIO-TEK 96 channel plate washer and incubated with […] fluo-3 dye at 37° C. for one hr. The dye was then removed by plate washing and the cells were allowed to equilibrate for 20 min at room temperature with antagonist or vehicle (FLIPR buffer). Agonist (100 μM BzATP final concentration for hP2X7; 5 μM BzATP final concentration or rP2X7) was added online with the FLIPR and fluorescence measurements made at 1 sec intervals for 60 sec followed by 3 sec intervals for a further 4 min (5 min total). A final addition of 5 μM ionomycin was made and the maximal BzATP-evoked fluorescence normalized to the maximal ionomycin-evoked fluorescence.

Q: With `COc1cc(C)c(Nc2nnc3n2C(c2ccc(F)cc2)CS(=O)(=O)C3)cc1OC` (stereo not shown) [Compound 19, (4,5-Dimethoxy-2-methyl-phenyl)-[5-(4-fluoro-phenyl)-7,7-dioxo-5,6,7,8-tetrahydro-7λ^6-[1,2,4]triazolo[3,4-c][1,4]thiazin-3-yl]-amine] as the molecule, how does the pIC50 (human P2X7) read?
A: The pIC50 was 6.96.

Q: And the melting point?
A: Its melting point is 226 to 227 °C.

Q: Which pIC50 (human P2X7) does the source give for `Cc1ccc(-c2ccnn(C)c2=O)cc1Nc1nnc2n1[C@H](c1ccc(F)cc1)CSC2` [Compound 51, 4-{3-[(R)-5-(4-Fluoro-phenyl)-5,6-dihydro-8H-[1,2,4]triazolo[3,4-c][1,4]thiazin-3-ylamino]-4-methyl-phenyl}-2-methyl-2H-pyridazin-3-one] here?
A: The pIC50 was 8.16.

Q: For `Cc1ccc(-c2ccnn(CCO)c2=O)cc1Nc1nnc2n1[C@H](c1ccc(F)cc1)COC2` [Compound 52, 4-{3-[(R)-5-(4-Fluoro-phenyl)-5,6-dihydro-8H-[1,2,4]triazolo[3,4-c][1,4]oxazin-3-ylamino]-4-methyl-phenyl}-2-(2-hydroxy-ethyl)-2H-pyridazin-3-one], which pIC50 (human P2X7) is on record?
A: The pIC50 was 8.09.

Q: With `Cc1ccc(-c2cc(C)n(C[C@H](C)O)n2)cc1Nc1nnc2n1[C@H](c1ccc(F)cc1)COC2` [Compound 34, (S)-1-(3-{3-[(R)-5-(4-Fluoro-phenyl)-5,6-dihydro-8H-[1,2,4]triazolo[3,4-c][1,4]oxazin-3-ylamino]-4-methyl-phenyl}-5-methyl-pyrazol-1-yl)-propan-2-ol] as the molecule, how does the pIC50 (human P2X7) read?
A: The pIC50 was 7.4.

Q: For `Cc1ccc2ncccc2c1Nc1nnc2n1[C@H](c1ccccc1)COC2` [Compound 11, (6-Methyl-quinolin-5-yl)-((R)-5-phenyl-5,6-dihydro-8H-[1,2,4]triazolo[3,4-c][1,4]oxazin-3-yl)-amine], which pIC50 (human P2X7) is on record?
A: The pIC50 was 7.442.

Q: Which pIC50 (human P2X7) does the source give for `Cc1cc(Cl)c(OCCO)cc1Nc1nnc2n1C(c1cccc(F)c1)COC2` (stereo not shown) [Compound 29, 2-{2-Chloro-5-[5-(3-fluoro-phenyl)-5,6-dihydro-8H-[1,2,4]triazolo[3,4-c][1,4]oxazin-3-ylamino]-4-methyl-phenoxy}-ethanol] here?
A: The pIC50 was 7.13.

Q: For `Cc1cc(-c2ccc(C)c(Nc3nnc4n3[C@H](c3ccc(F)cc3)COC4)c2)n[nH]1` [Compound 14, [(R)-5-(4-Fluoro-phenyl)-5,6-dihydro-8H-[1,2,4]triazolo[3,4-c][1,4]oxazin-3-yl]-[2-methyl-5-(5-methyl-1H-pyrazol-3-yl)-phenyl]-amine], which pIC50 (human P2X7) is on record?
A: The pIC50 was 7.62.

Q: With `C[C@H](CO)N1Cc2c(Nc3nnc4n3C(c3cccc(F)c3)COC4)ccc(Cl)c2C1=O` (stereo partly drawn) [Compound 28, 7-Chloro-4-[5-(3-fluoro-phenyl)-5,6-dihydro-8H-[1,2,4]triazolo[3,4-c][1,4]oxazin-3-ylamino]-2-((R)-2-hydroxy-1-methyl-ethyl)-2,3-dihydro-isoindol-1-one] as the molecule, how does the pIC50 (human P2X7) read?
A: The pIC50 was 5.625.

Q: For `COc1cc(Br)c(Nc2nnc3n2C(c2ccccc2)CC2(C3)OCCO2)cc1OC` (stereo not shown) [Compound 7, (2-Bromo-4,5-dimethoxy-phenyl)-(7,7′-spiro-ethylenedioxy-5-phenyl-5,6,7,8-tetrahydro-[1,2,4]triazolo[4,3-a]pyridin-3-yl)-amine], which pIC50 (human P2X7) is on record?
A: Its pIC50 is 6.2.

Q: For `Cc1ccc2c(Nc3nnc4n3[C@H](c3ccc(F)cc3)COC4)cccc2n1` [Compound 27, [(R)-5-(4-Fluoro-phenyl)-5,6-dihydro-8H-[1,2,4]triazolo[3,4-c][1,4]oxazin-3-yl]-(2-methyl-quinolin-5-yl)-amine], which pIC50 (human P2X7) is on record?
A: Its pIC50 is 6.76.

Q: With `COc1cc(Br)c(Nc2nnc3n2[C@@H](c2ccc(F)cc2)COC3)cc1OC` [Compound 12, (2-Bromo-4,5-dimethoxy-phenyl)-[(S)-5-(4-fluoro-phenyl)-5,6-dihydro-8H-[1,2,4]triazolo[3,4-c][1,4]oxazin-3-yl]-amine] as the molecule, how does the pIC50 (human P2X7) read?
A: The pIC50 was 5.1167.

Q: Which pIC50 (human P2X7) does the source give for `COc1cc(Br)c(Nc2nnc3n2C(c2ccc(F)cc2)C[S+]([O-])C3)cc1OC` (stereo not shown) [Compound 16, (2-Bromo-4,5-dimethoxy-phenyl)-[5-(4-fluoro-phenyl)-7-oxo-5,6,7,8-tetrahydro-7λ^4-[1,2,4]triazolo[3,4-c][1,4]thiazin-3-yl]-amine] here?
A: Its pIC50 is 7.4167.

Q: Which pIC50 (human P2X7) does the source give for `Cc1ccc2ncccc2c1Nc1nnc2n1[C@H](c1ccc(F)cc1)COC2` [Compound 36, [(R)-5-(4-Fluoro-phenyl)-5,6-dihydro-8H-[1,2,4]triazolo[3,4-c][1,4]oxazin-3-yl]-(6-methyl-quinolin-5-yl)-amine] here?
A: Its pIC50 is 7.87.

Q: For `COc1cc(Br)c(Nc2nnc3n2C(c2ccc(F)cc2)CN(C(C)=O)C3)cc1OC` (stereo not shown) [Compound 24, 1-[3-(2-Bromo-4,5-dimethoxy-phenylamino)-5-(4-fluoro-phenyl)-5,6-dihydro-8H-[1,2,4]triazolo[4,3-a]pyrazin-7-yl]-ethanone], which pIC50 (human P2X7) is on record?
A: The pIC50 was 6.945.

Q: With `COc1cc(Br)c(Nc2nnc3n2C(c2ccc(F)cc2)CN(C)C3)cc1OC` (stereo not shown) [Compound 26, (2-Bromo-4,5-dimethoxy-phenyl)-[5-(4-fluoro-phenyl)-7-methyl-5,6,7,8-tetrahydro-[1,2,4]triazolo[4,3-a]pyrazin-3-yl]-amine] as the molecule, how does the pIC50 (human P2X7) read?
A: The pIC50 was 7.32.

Q: With `Cc1ccc(-c2ccnn(C)c2=O)cc1Nc1nnc2n1[C@H](c1ccc(F)cc1)COC2` [Compound 37, 4-{3-[(R)-5-(4-Fluoro-phenyl)-5,6-dihydro-8H-[1,2,4]triazolo[3,4-c][1,4]oxazin-3-ylamino]-4-methyl-phenyl}-2-methyl-2H-pyridazin-3-one] as the molecule, how does the pIC50 (human P2X7) read?
A: The pIC50 was 7.865.

Q: Which pIC50 (human P2X7) does the source give for `O=C1NCCCN1c1ccc(Br)c(Nc2nnc3n2[C@H](c2ccc(F)cc2)COC3)c1` [Compound 54, 1-{4-Bromo-3-[(R)-5-(4-fluoro-phenyl)-5,6-dihydro-8H-[1,2,4]triazolo-[3,4-c][1,4]oxazin-3-ylamino]-phenyl}-tetrahydro-pyrimidin-2-one] here?
A: Its pIC50 is 7.325.

Q: Which pIC50 (human P2X7) does the source give for `COc1cc(Br)c(Nc2nnc3n2C(c2ccc(F)cc2)CNC3)cc1OC` (stereo not shown) [Compound 17, (2-Bromo-4,5-dimethoxy-phenyl)-[5-(4-fluoro-phenyl)-5,6,7,8-tetrahydro-[1,2,4]triazolo[4,3-a]pyrazin-3-yl]-amine] here?
A: Its pIC50 is 7.3267.

Q: With `Cn1nccc(-c2ccc(F)c(Nc3nnc4n3[C@H](c3ccc(F)cc3)COC4)c2)c1=O` [Compound 55, 4-{4-Fluoro-3-[(R)-5-(4-fluoro-phenyl)-5,6-dihydro-8H-[1,2,4]triazolo[3,4-c][1,4]oxazin-3-ylamino]-phenyl}-2-methyl-2H-pyridazin-3-one] as the molecule, how does the pIC50 (human P2X7) read?
A: The pIC50 was 8.035.

Q: For `COc1cc(Br)c(Nc2nnc3n2C(c2ccccc2)CCC3)cc1OC` (stereo not shown) [Compound 1, (2-Bromo-4,5-dimethoxy-phenyl)-(5-phenyl-5,6,7,8-tetrahydro-[1,2,4]triazolo[4,3-a]pyridin-3-yl)-amine], which pIC50 (human P2X7) is on record?
A: The pIC50 was 7.25.

Q: With `Cc1ccc2[nH]c(=O)ccc2c1Nc1nnc2n1[C@H](c1ccc(F)cc1)COC2` [Compound 38, 5-[(R)-5-(4-Fluoro-phenyl)-5,6-dihydro-8H-[1,2,4]triazolo[3,4-c][1,4]oxazin-3-ylamino]-6-methyl-1H-quinolin-2-one] as the molecule, how does the pIC50 (human P2X7) read?
A: Its pIC50 is 7.46.

Q: Which pIC50 (human P2X7) does the source give for `COc1cc(Br)c(Nc2nnc3n2C(c2ccc(F)cc2)CSC3)cc1OC` (stereo not shown) [Compound 10, (2-Bromo-4,5-dimethoxy-phenyl)-[5-(4-fluoro-phenyl)-5,6-dihydro-8H-[1,2,4]triazolo[3,4-c][1,4]thiazin-3-yl]-amine] here?
A: The pIC50 was 7.625.

Q: With `Cc1ccc(-c2ccc(=O)[nH]n2)cc1Nc1nnc2n1[C@H](c1ccc(F)cc1)COC2` [Compound 41, 6-{3-[(R)-5-(4-Fluoro-phenyl)-5,6-dihydro-8H-[1,2,4]triazolo[3,4-c][1,4]oxazin-3-ylamino]-4-methyl-phenyl}-2H-pyridazin-3-one] as the molecule, how does the pIC50 (human P2X7) read?
A: The pIC50 was 7.665.

Q: With `Cc1cc(-c2ccc(Cl)c(Nc3nnc4n3[C@H](c3ccc(F)cc3)COC4)c2)nn1CCO` [Compound 40, 2-(3-{4-Chloro-3-[(R)-5-(4-fluoro-phenyl)-5,6-dihydro-8H-[1,2,4]triazolo[3,4-c][1,4]oxazin-3-ylamino]-phenyl}-5-methyl-pyrazol-1-yl)-ethanol] as the molecule, how does the pIC50 (human P2X7) read?
A: Its pIC50 is 7.54.

From patent US8871760B2, “[1,2,4]triazolo[3,4-C][1,4]oxazines as P2X7 modulators” (Roche Palo Alto LLC, priority 2009, dated 2014)
